{"source": "patent US5567684A", "about": "“Synthetic ganglioside derivatives” (The Regents of The University of California, priority 1994, dated 1996)", "key": {"[1]": {"test_system": "normal human peripheral blood mononuclear leukocytes", "assay": "cells", "format": "cell-based"}, "[2]": {"test_system": "allogeneic immune response in popliteal lymph node", "assay": "In vivo assay of immunosuppressive activity: allogeneic immune response in draining popliteal lymph node after footpad injection", "set-up": "species or system C3H mice", "conditions": "for lymph node mass, net increase / lymph node mass, stimulated / lymph node mass, unstimulated: day 4; for lymph node mass, stimulated: left footpad; for lymph node mass, unstimulated: right footpad", "text": "In vivo Assay of Immunosuppressive Activity: Footpad injection of the synthetic ganglioside derivatives being studied and of the stimulant of the cellular immune response (allogeneic cells), is subsequently followed by harvest of the popliteal node and assessment of the node size, cell number, specific proliferation response and generation of specific cytotoxicity.\nMice: C3H (H-2^K) and BALB/c (H-2^d) mice are obtained at 6 weeks of age and used in these experiments at 7-12 weeks of age. The animals are murine virus free strains purchased from Charles River, Wilmington, Mass.\nPreparation of stimulator cells: Spleens are removed aseptically and immediately placed in murine complete media [RPMI 1640 w/o L-glutamine (Whittaker Bioproducts, Walkersville, Md.) supplemented with 10% FCS; 1% of MEM non-essential amino acids (Cellgro), sodium pyruvate, L-glutamine, Penicillin 50 U/ml/Streptomycin 50 μg/ml and 10 mM Hepes Buffer (Whittaker Bioproducts)] then transferred to a 60×10 mm petri dish. A sterile single cell suspension is prepared by gently pressing the spleen onto a cell dissociation sieve (Sigma). Mononuclear cells are isolated by Ficoll-Hypaque density gradient separation, followed by lysis of erythrocytes (ACK lysing buffer pH 7.4). The cells are washed and their viability determined by trypan blue exclusion. Allogeneic (BALB/c) splenocytes are diluted to the appropriate concentration in saline and are injected into the footpad of C3H mice together with the synthetic ganglioside derivatives to be tested.\nPreparation of synthetic ganglioside derivatives: Synthetic ganglioside derivatives are aliquoted in HPLC-grade chloroform:methanol (1:1), and dried in glass microvials. The synthetic ganglioside derivatives are then resuspended for injection in 0.9% NaCl, sonicated for 2 min in a Branson water bath sonicator.\nInjections: Spleen cells or tumor cells and the synthetic ganglioside derivatives being studied are injected into the left hind footpad in a total volume of 30 μl.\nIsolation of popliteal lymph nodes: Primed animals are killed by cervical dislocation on day 4, the popliteal lymph node draining the left and right footpads are removed aseptically, trimmed free of excess fat, weighted and placed on ice in tubes containing tissue culture medium. The nodes are then teased with a flat end of a 3 ml syringe to obtain a single cell suspension, which is washed in complete murine media containing 0.1% 2mercaptoethanol (Gibco, New York). The cells are then quantified and their viability determined by trypan blue exclusion. The cell concentration is adjusted to 2×10^6 cells/ml.\nCell cultures: 2×10^5 lymph node cells in 100 μl are cultured for 18 hours in complete medium with 0.5 μC ^3 H-thymidine incorporation quantified by β-scintillation counting as a measure of in vivo lymphocyte activation (50).\nIn this model, the immune response in a local microenvironment directed against allogeneic cells is assessed. Allogeneic (C3H mice) spleen cells were injected into the footpad of BALB/c mice and the draining popliteal lymph nodes were removed from the sacrificed mice four days later."}, "[3]": {"conditions": "Homo sapiens, Leukocyte, 2.5 μM, read-out: Inhibition"}, "[4]": {"conditions": "Homo sapiens, Leukocyte, 5.0 μM, read-out: Inhibition"}, "[5]": {"conditions": "Table 4, mean ± SD of five mice, ganglioside 10 nmol coinjected, CSA 24 mg/kg/dose i.p. × 4 doses"}, "[6]": {"conditions": "Homo sapiens, Leukocyte, read-out: inhibition of human lymphoproliferation"}, "[7]": {"conditions": "Table 2, mean ± SD of five mice, dialkyl GM3 11 μg coinjected, CSA 24 mg/kg/day i.p. × 4 days"}, "[8]": {"conditions": "Table 1, mean ± SD of five mice, GM3 n=1 10 nmol coinjected, cyclosporin A 24 mg/kg/dose i.p. × 4 doses"}}, "note": "“Also recorded” adds a separate entry of the source. Like-named read-outs stand apart in the source and are kept apart here."}
{"smiles": "CCCCCCCCCCCCCC=CC(O)C(COC1OC(CO)C(OC2OC(CO)C(O)C(OC3(C(=O)O)CC(O)C(NC(C)=O)C(C(O)C(O)CO)O3)C2O)C(O)C1O)NC(=O)CCCCCCCCCCCCC", "note": "(stereo not drawn) [GM3 d18:1-C14:0]", "values": [{"measurement": "[^3 H] Thymidine Uptake", "setting": "[1]; 2.5 μM", "value": 4.6, "unit": "CPM × 10^-3"}, {"measurement": "[^3 H] Thymidine Uptake", "setting": "[1]; 5.0 μM", "value": 0.8, "unit": "CPM × 10^-3"}, {"measurement": "inhibition at 2.5 µM", "setting": "[1]; [3]", "value": 53, "unit": "%"}, {"measurement": "inhibition at 5 µM", "setting": "[1]; [4]", "value": 92, "unit": "%"}]}
{"smiles": "CCCCCCCCCCCCCC=CC(O)C(COC1(C(=O)O)CC(O)C(NC(C)=O)C(C(O)C(O)CO)O1)NC(=O)CCCCCCCCCCCCCCCCC", "note": "[αGM5, (2S,3R,4E)-1-O-(5-acetamido-3,5-dideoxy-D-glycero-α- and β-D-galacto-f2-nonulopyranosylonicacid)-2-octadecanamido-4-octadecene-1,3-diol]", "values": [{"measurement": "lymph node mass, net increase", "setting": "[2]; Table 4, ganglioside 10 nmol coinjected, CSA 24 mg/kg/dose i.p. × 4 doses", "value": 0.58, "unit": "mg"}, {"measurement": "lymph node mass, stimulated", "setting": "[2]; [5]", "value": "1.40 ± 0.22", "unit": "mg"}, {"measurement": "lymph node mass, unstimulated", "setting": "[2]; [5]", "value": "0.82 ± 0.26", "unit": "mg"}, {"measurement": "in vivo immunosuppression, in words", "setting": "[2]; αGM5, compared to systemically administered cyclosporin A, Table 4", "value": "highly immunosuppressive in vivo"}, {"measurement": "reduction in cellular immune response (increase in lymph mass caused by in vivo allostimulation)", "setting": "[2]; αGM5, Table 4", "value": "2/3"}, {"measurement": "immunosuppressive activity in vitro, in words", "setting": "[1]", "value": "potent immunosuppressive agents"}, {"measurement": "[^3 H] Thymidine Uptake", "setting": "[1]; 2.5 μM", "value": 0.1, "unit": "CPM × 10^-3"}, {"measurement": "[^3 H] Thymidine Uptake", "setting": "[1]; 5.0 μM", "value": 0.1, "unit": "CPM × 10^-3"}, {"measurement": "inhibition at 2.5 µM", "setting": "[1]; [3]", "value": 99, "unit": "%"}, {"measurement": "inhibition at 5 µM", "setting": "[1]; [4]", "value": 99, "unit": "%"}, {"measurement": "IC90", "setting": "[1]; Homo sapiens, Leukocyte, read-out: ID90", "value": "~2500", "unit": "nM"}, {"measurement": "inhibition at 0.0025 µM", "setting": "[1]; [6]", "value": 99, "unit": "%"}, {"measurement": "inhibition at 0.005 µM", "setting": "[1]; [6]", "value": 99, "unit": "%"}]}
{"smiles": "CCCCCCCCCCCCCCC(CCCCCCCCCCCCCC)COC1OC(CO)C(OC2OC(CO)C(O)C(OC3(C(=O)O)CC(O)C(NC(C)=O)C(C(O)C(O)CO)O3)C2O)C(O)C1O", "note": "[dialkyl GM3, 2-(Tetradecylhexadecyl) O-(5-acetamido-3,5-dideoxy-D-glycero-D-galacto-2-nonulopyranosylonic acid)-(2→3)-O-β-D-galactopyranosyl-(1→4)-β-D-glucopyranoside]", "values": [{"measurement": "[^3 H]thymidine uptake (spontaneous lymphoproliferation)", "setting": "[2]", "value": "317 ± 45", "unit": "cpm"}, {"measurement": "[^3 H]thymidine uptake relative to control group", "setting": "[2]; 2×10^5 cells", "value": 20, "unit": "%"}, {"measurement": "[^3 H]thymidine uptake (spontaneous lymphoproliferation)", "setting": "[2]; Table 2, 0.5 × 10^5 cells, mean ± SEM of three cultures", "value": "107 ± 29", "unit": "cpm"}, {"measurement": "[^3 H]thymidine uptake (spontaneous lymphoproliferation)", "setting": "[2]; Table 2, 1 × 10^5 cells, mean ± SEM of three cultures", "value": "152 ± 15", "unit": "cpm"}, {"measurement": "lymph node mass, net increase", "setting": "[2]; Table 2, dialkyl GM3 11 μg coinjected, CSA 24 mg/kg/day i.p. × 4 days", "value": 0.45, "unit": "mg"}, {"measurement": "lymph node mass, stimulated", "setting": "[2]; [7]", "value": "1.86 ± 0.25", "unit": "mg"}, {"measurement": "lymph node mass, unstimulated", "setting": "[2]; [7]", "value": "1.41 ± 0.17", "unit": "mg"}, {"measurement": "lymphocytes (total mononuclear leukocytes recovered from five stimulated popliteal lymph nodes)", "setting": "[2]; Table 2, dialkyl GM3 11 μg, CSA 24 mg/kg/day i.p. × 4 days", "value": "0.83 ×10^7"}, {"measurement": "suppression of the immune response / proliferation, in words", "setting": "[2]; Table 2, three cell densities for proliferation", "value": "marked suppression of the immune response; also recorded: markedly suppresses the proliferation"}, {"measurement": "lymphocyte number as fraction of control group", "setting": "[2]; control group 2.3×10^7 cells", "value": "≤ 1/3"}, {"measurement": "net increase of lymph node mass", "setting": "[2]; dialkyl GM3 10 nmol or 11 μg/mouse coinjected, cyclosporin A systemic", "value": 0.45, "unit": "mg"}, {"measurement": "lymphocyte (mononuclear-leukocyte) number", "setting": "[2]; five nodes from five mice", "value": "0.8 ×10^7"}, {"measurement": "immunosuppressive activity in vitro, in words", "setting": "[1]", "value": "marked immunosuppressive activity; also recorded: higher degree of inhibition of dialkyl GM3 than that of GM3 is readily observed"}, {"measurement": "potency relative to GM3 d18:1-C18:0", "setting": "[1]", "value": "four-fold"}, {"measurement": "[^3 H] Thymidine Uptake", "setting": "[1]; 2.5 μM", "value": 0.7, "unit": "CPM × 10^-3"}, {"measurement": "[^3 H] Thymidine Uptake", "setting": "[1]; 5.0 μM", "value": 0.3, "unit": "CPM × 10^-3"}, {"measurement": "IC50", "setting": "[1]; Homo sapiens, Leukocyte, 0-10 μM, read-out: ID50, inhibition of human lymphoproliferation", "value": 200, "unit": "nM"}, {"measurement": "inhibition at 2.5 µM", "setting": "[1]; [3]", "value": 93, "unit": "%"}, {"measurement": "inhibition at 5 µM", "setting": "[1]; [4]", "value": 97, "unit": "%"}, {"measurement": "IC90", "setting": "[1]; Homo sapiens, Leukocyte, read-out: concentration at which 90% inhibition was observed, 0-20 μM", "value": "< 7000", "unit": "nM"}]}
{"smiles": "CCCCCCCCCCCCCC=CC(O)C(COC1(C(=O)O)CC(O)C(NC(C)=O)C(C(O)C(O)CO)O1)NC(=O)CCCCCCCCCCCCCCCCC", "note": "[βGM5, (2S,3R,4E)-1-O-(5-acetamido-3,5-dideoxy-D-glycero-α- and β-D-galacto-f2-nonulopyranosylonicacid)-2-octadecanamido-4-octadecene-1,3-diol]", "values": [{"measurement": "immunosuppressive activity in vitro, in words", "setting": "[1]", "value": "potent immunosuppressive agents"}, {"measurement": "[^3 H] Thymidine Uptake", "setting": "[1]; 2.5 μM", "value": 1.4, "unit": "CPM × 10^-3"}, {"measurement": "[^3 H] Thymidine Uptake", "setting": "[1]; 5.0 μM", "value": 0.3, "unit": "CPM × 10^-3"}, {"measurement": "inhibition at 2.5 µM", "setting": "[1]; [6]", "value": 86, "unit": "%"}, {"measurement": "inhibition at 5 µM", "setting": "[1]; [6]", "value": 97, "unit": "%"}]}
{"smiles": "CCCCCCCCCCCCCC=CC(O)C(COC1OC(CO)C(OC2OC(CO)C(O)C(OC3(C(=O)O)CC(O)C(NC(C)=O)C(C(O)C(O)CO)O3)C2O)C(O)C1O)NC(C)=O", "note": "(stereo not drawn) [GM3 n=1]", "values": [{"measurement": "[^3 H]thymidine uptake (spontaneous lymphoproliferation)", "setting": "[2]; Table 1, 2 × 10^5 cells/well, mean ± SD of three cultures", "value": "329 ± 18", "unit": "cpm"}, {"measurement": "lymphocytes (total mononuclear leukocytes recovered from five stimulated popliteal lymph nodes)", "setting": "[2]; Table 1, GM3 n=1 10 nmol, cyclosporin A 24 mg/kg/dose i.p. × 4 doses", "value": "1.03 × 10^7"}, {"measurement": "lymph node mass, stimulated", "setting": "[2]; [8]", "value": "1.84 ± 0.30", "unit": "mg"}, {"measurement": "lymph node mass, net increase", "setting": "[2]; [8]", "value": "0.56 ± 0.36", "unit": "mg"}, {"measurement": "lymph node mass, unstimulated", "setting": "[2]; [8]", "value": "1.29 ± 0.24", "unit": "mg"}, {"measurement": "P, difference in net increase of popliteal nodes between control and GM3 n = 1 treated groups", "setting": "[2]; Table 1 footnote", "value": "< 0.01"}, {"measurement": "in vivo immunosuppressive activity compared with mixed human brain gangliosides", "setting": "[2]; mouse, in vivo", "value": "much more active than the mixed brain gangliosides"}, {"measurement": "in vivo immunosuppressive activity compared with cyclosporin A", "setting": "[2]; single dose of GM3 n=1, Table 1", "value": "almost as immunosuppressive as systemically administered cyclosporin A"}, {"measurement": "immunosuppressive activity compared with lyso GM3 (n=-1)", "setting": "[1]", "value": "higher degree of immunosuppressive activity"}, {"measurement": "immunosuppressive activity compared with n = 17 or 23", "setting": "[1]", "value": "greater immunosuppressive activity than glycosphingolipids wherein n is 17 or 23"}, {"measurement": "relative immunosuppressive activity (inhibition of human lymphoproliferative response)", "setting": "[1]; 5 μM", "value": "highest immunosuppressive activity"}, {"measurement": "IC50", "setting": "[1]; Homo sapiens, Leukocyte, read-out: ID50, inhibition of the human lymphoproliferative response", "value": 0.2, "unit": "nM"}]}
